Where “and” joins values, the source holds several entries; their conditions need not be identical. Equal entries are not always repeated. Entries after “also recorded” stand apart in the source; their conditions may differ.
Tests used:
HTC = test: effect of EB1089 on hepatoma cell line HTC; type: cell-based; parameters: unit not given here; settings: day 5, 5% charcoal treated media, repeated experiments
From the text: (§1) (All experiments carried out in 5% charcoal treated media. All day 5. Successive lines of results for a particular cell line are the results for repeated experiment)

Morris = test: effect of EB1089 on hepatoma cell line Morris; type: cell-based; parameters: unit not given here; settings: day 5, 5% charcoal treated media, repeated experiments
From the text: as §1

Hep 1-6 = test: effect of EB1089 on hepatoma cell line Hep 1-6; type: cell-based; parameters: unit not given here; settings: day 5, 5% charcoal treated media, repeated experiments
From the text: as §1

NovoKoff = test: effect of EB1089 on hepatoma cell line NovoKoff; type: cell-based; parameters: unit not given here; settings: day 5, 5% charcoal treated media, repeated experiments
From the text: as §1

SK-Hep = test: effect of EB1089 on hepatoma cell line SK-Hep; type: cell-based; parameters: unit not given here; settings: day 5, 5% charcoal treated media, repeated experiments
From the text: as §1

PCL = test: effect of EB1089 on hepatoma cell line PCL; type: cell-based; parameters: unit not given here; settings: day 5, 5% charcoal treated media, repeated experiments
From the text: as §1

[1] = tested on: human hepatoma cell line, Hep G2; test: in vitro growth of human hepatoma cell line Hep G2 (thymidine uptake); type: cell-based; settings: for % of control ±SEM: treated for 5 days
Procedure: (§2) Results are % of control ±SEM
(§3) LoVo cells were treated for 10 days, while HepG2 cells were treated for 5 days, with D3 or EB1089.

[2] = tested on: human colon cancer cells LoVo; test: in vitro growth of human colon cancer cells LoVo; type: cell-based; settings: treated for 10 days
Procedure: as §2, §3

[3] = tested on: liver cancers (hepatoma or colorectal cancer metastases); test: Phase 1 trial of hepatic artery infusion: tumour marker (CEA or AFP) response; type: in vivo, human; settings: for patients with at least a limited response (fall in the rate of rise of tumour marker): hepatic artery infusion
From the text: 2. To investigate the effects of such an infusion upon liver cancers by monitoring of tumour marker levels and their rate of rise. […] Regular assay of LFTs, UECs, and calcium and phosphate levels, together with AFP or CEA levels. CEA or AFP levels—looking for evidence of response of the tumours to treatment

[4] = type: physicochemical
Procedure: To illustrate the solubility of vitamin D compound in lipiodol radiolabelled vitamin D3 was dissolved in lipiodol at various amounts and the compared to the solubility of radiolabelled vitamin D3.

breast cancer = settings: topical, cited from earlier work
human hepatoma = settings: cited from earlier work
[5] = Phase 1 trial of hepatic artery infusion: safety, serum calcium; type: in vivo, human
From the text: Regular assay of LFTs, UECs, and calcium and phosphate levels, together with AFP or CEA levels.
Patients 3, 5 and 6 were initially given 2 mcg/day, and then four weeks of 5 mcg/week.
Patient 4 was hypercalcaemic due to a paraneoplastic phenomena prior to treatment, and was therefore given lower dosages.
Patient 7 was commenced on the same dosage regimen as patients 3, 5 and 6 but was withdrawn from the trial prior to starting 10 mcg/day due to progression of their disease.
Calcium levels—looking for the development of hypercalcaemia
UECs and LFTs—looking for unexpected effects upon hepatic and renal function.

[6] = pig model, intravenous versus hepatic arterial infusion, serum calcium; type: in vivo, Female Landrace pigs; settings: for calcium levels: pig
From the text: Female Landrace pigs (minimal disease) of weight 15-50 kg.
This infusion was delivered for a one or two week period, after which the animal was not treated for 4 weeks to allow any induced hepatic enzymes to diminish. The animal was then “crossed over” those whose first infusion was via the hepatic artery had their pump connected to an intravenous catheter and vice versa.
Blood was taken regularly and assayed foe calcium levels, LFTs and UECs.

[7] = 2 mcg/day administered orally; cited from earlier work

C=C1/C(=C\C=C2/CCC[C@]3(C)[C@@H]([C@H](C)/C=C/C=C/C(O)(CC)CC)CC[C@@H]23)C[C@@H](O)C[C@@H]1O [EB1089, 1 α.25 (OH)2 22.24 diene 24.26.27 trihomo D3]
effect on hepatoma cell line (HTC; 10^7 M): 95.3 ± 17.7 and 57.9 ± 7.2
effect on hepatoma cell line (HTC; 10^8 M): 86.9 ± 15.0 and 63.9 ± 12.5
effect on hepatoma cell line (HTC; 10^9 M): 100.4 ± 15.4 and 97.4 ± 13.8
effect on hepatoma cell line (HTC; 10^11 M): 98.8 ± 15.5 and 95.9 ± 13.0
effect on hepatoma cell line (HTC; 10^-10 M): 113.0 ± 22.1 and 107.8 ± 12.7
effect on hepatoma cell line (Morris; 10^7 M): 136.0 ± 12.5 and 80.1 ± 5.2
effect on hepatoma cell line (Morris; 10^8 M): 134.0 ± 13.3 and 83.3 ± 4.7
effect on hepatoma cell line (Morris; 10^9 M): 117.8 ± 11.7 and 79.1 ± 4.9
effect on hepatoma cell line (Morris; 10^10 M): 118.0 ± 11.9 and 88.3 ± 3.9
effect on hepatoma cell line (Morris; 10^-11 M): 118.0 ± 14.3 and 90.8 ± 5.9
effect on hepatoma cell line (Hep 1-6; Hep 1-6, 10^8 M): 63.9 ± 7.0 and 113.4 ± 5.6
effect on hepatoma cell line (Hep 1-6; Hep 1-6, 10^9 M): 78.1 ± 11.4 and 106.7 ± 5.4
effect on hepatoma cell line (Hep 1-6; Hep 1-6, 10^11 M): 103.4 ± 9.2 and 98.1 ± 4.3
effect on hepatoma cell line (Hep 1-6; Hep 1-6, 10^-10 M): 110.8 ± 13.8 and 103.5 ± 4.5
effect on hepatoma cell line (NovoKoff; 10^7 M): 91.5 ± 14.5 and 84.6 ± 17.0
effect on hepatoma cell line (NovoKoff; 10^8 M): 106.0 ± 18.1 and 79.0 ± 18.4
effect on hepatoma cell line (NovoKoff; 10^9 M): 103.7 ± 13.8 and 95.4 ± 18.2
effect on hepatoma cell line (NovoKoff; 10^11 M): 131.0 ± 15.9 and 92.6 ± 17.6
effect on hepatoma cell line (NovoKoff; 10^-10 M): 116.3 ± 22.1 and 94.0 ± 21.4
effect on hepatoma cell line (SK-Hep; 10^8 M): 63.1 ± 16.2 and 71.3 ± 11.8 and 83.1 ± 4.2 and 95.6 ± 12.2
effect on hepatoma cell line (SK-Hep; 10^9 M): 52.1 ± 8.8 and 61.6 ± 12.2 and 88.4 ± 4.1 and 103.1 ± 12.4
effect on hepatoma cell line (SK-Hep; 10^11 M): 82 ± 9.2 and 78.8 ± 11.5 and 118.3 ± 26.4 and 66.9 ± 36.9
effect on hepatoma cell line (SK-Hep; 10^-10 M): 52.1 ± 8.6 and 61.1 ± 16.6 and 91.0 ± 4.5 and 103.8 ± 11.7
effect on hepatoma cell line (PCL; 10^7 M): 98.5 ± 4.5 and 106.0 ± 9.1
effect on hepatoma cell line (PCL; 10^8 M): 101.6 ± 11.5 and 105.2 ± 4.9
effect on hepatoma cell line (PCL; 10^9 M): 98.3 ± 6.5 and 95.1 ± 3.3
effect on hepatoma cell line (PCL; 10^10 M): 92.5 ± 6.6 and 100.1 ± 2.1
effect on hepatoma cell line (PCL; 10^11 M): 102.5 ± 10.0 and 95.9 ± 2.9
% of control ±SEM ([1]; HepG2, 10^−7 M): 11.2 ± 2.7 % of control
% of control ±SEM ([1]; HepG2, 10^−8 M): 13.1 ± 2.8 % of control
% of control ±SEM ([1]; HepG2, 10^−9 M): 13.2 ± 2.7 % of control
% of control ±SEM ([1]; HepG2, 10^−10 M): 49.1 ± 2.9 % of control
% of control ±SEM ([1]; HepG2, 10^−11 M): 41.7 ± 3.6 % of control
% of control ±SEM ([2]; 10^−7 M): 40.5 ± 10.7 % of control
% of control ±SEM ([2]; 10^−8 M): 51.0 ± 10.3 % of control
% of control ±SEM ([2]; 10^−9 M): 73.3 ± 11.7 % of control
% of control ±SEM ([2]; 10^−10 M): 55.3 ± 13.7 % of control
% of control ±SEM ([2]; 10^−11 M): 64.7 ± 12.7 % of control

C=C1CC[C@H](O)C/C1=C/C=C1\CCC[C@]2(C)[C@@H]([C@H](C)CCCC(C)C)CC[C@@H]12 [vitamin D3, cholecalciferol]
patients with at least a limited response (fall in the rate of rise of tumour marker) [3]: 4 of 7 patients
solubility in lipiodol compared with aqueous medium [4]: substantially more soluble in lipiodol

C=C1/C(=C\C=C2/CCC[C@]3(C)[C@@H]([C@H](C)/C=C/[C@@H](O)C4CC4)CC[C@@H]23)C[C@@H](O)C[C@@H]1O [Calcipotriol, calcipotriol]
patients with a minimal response (breast cancer; of the 19 patients treated): 1 patients
patients with a significant response (breast cancer; of the 19 patients treated): 3 patients
patients who became hypercalcaemic during treatment (breast cancer): 2 of the 19 patients

CC/C(=C(\c1ccccc1)c1ccc(OCCN(C)C)cc1)c1ccccc1 [Tamoxifen]
survival (human hepatoma): significantly, but modestly, improve survival

C=C1/C(=C\C=C2/CCC[C@]3(C)[C@@H]([C@H](C)CCCC(C)(C)O)CC[C@@H]23)C[C@@H](O)C[C@@H]1O [1.25(OH)2D3, 1.25-dihydroxycholecalciferol]
patients with at least a limited response (fall in the rate of rise of tumour marker) [3]: 4 of 7 patients
tumour marker level ([3]; patient 1): dramatically increased at the onset of treatment but this was followed by an equally dramatic fall in the level
tumour marker level ([3]; patient 2): levelling off of the rate of rise with time
tumour marker level ([3]; patient 3): dramatic fall in marker level initially, but later this resumed it rise
rate of rise of CEA levels ([3]; patient 7): appears to have slowed somewhat
CEA levels rate of rise ([3]; patients 5 and 6): did not appear to have any response to treatment
hypercalcaemia developed ([5]; hepatic arterial infusion, 15 mcg/day): two out of three patients
derangement of hepatic or renal function ([5]; hepatic artery infusion, seven patients): Nor did any patient experience any derangement of hepatic or renal function
unexpected adverse reaction or side effect to the infusion ([5]; hepatic artery infusion, seven patients, listed as 1.25(OH)D3): No patient suffered any unexpected adverse reaction or side effect; also recorded: safe and without unexpected side effects
dose administered without any observable systemic toxicity ([5]; intraarterially to the liver, patients): at least 10 mcg/day
calcium level ([5]; patient with pre existing hypercalcaemia (FIG. 3)): did not rise with treatment
hypercalcaemia during treatment ([5]; patients 1 and 2, lower doses): Neither patients 1 nor 2 became hypercalcaemic
calcium levels ([6]; hepatic arterial infusion, similar dosage, listed as 1.25(OH)D3): does not affect calcium levels; also recorded: does not produce the hypercalcaemia
calcium levels ([6]; intravenous infusion): results in hypercalcaemia
LFTs and UECs ([6]; pigs, either route): normal in all animals throughout
unexpected reaction ([6]; pigs, either route): No pig suffered any unexpected reaction
hypercalcaemia, share of patients [7]: 50 % of patients
amount readily dissolved ([4]; in 1 ml lipiodol): ≥ 2 mg
inhibition of growth ([1]; Hep G2, 10^−11M): considerably less effective
inhibition of growth ([1]; Hep G2, reduction in thymidine uptake, dose dependent (FIG. 1)): 95%
% of control ±SEM ([1]; HepG2, 10^−7 M): 7.1 ± 6.3 % of control
% of control ±SEM ([1]; HepG2, 10^−8 M): 8.6 ± 6.3 % of control
% of control ±SEM ([1]; HepG2, 10^−9 M): 13.8 ± 6.4 % of control
% of control ±SEM ([1]; HepG2, 10^−10 M): 56.6 ± 6.7 % of control
% of control ±SEM ([1]; HepG2, 10^−11 M): 105.6 ± 6.6 % of control
% of control ±SEM ([2]; 10^−7 M): 34.2 ± 3.8 % of control
% of control ±SEM ([2]; 10^−8 M): 53.1 ± 5.0 % of control
% of control ±SEM ([2]; 10^−9 M): 74.2 ± 6.8 % of control
% of control ±SEM ([2]; 10^−10 M): 96.5 ± 12.9 % of control
% of control ±SEM ([2]; 10^−11 M): 127.4 ± 7.1 % of control

From US6486144B1, “Method of treatment of liver tumors and pharmaceutical compositions for use therein” (priority 1997, dated 2002)
